Results taken from patent US9273009B2, “Tetrahydronaphthalene derivatives” (Concert Pharmaceuticals Inc., priority 2010, dated 2016).
Where a name gives a salt, the structure may show the parent alone. Read-outs that look alike come from different tables or passages of the source.

Assays:
[1] = Metabolic stability in human liver microsomes (in vitro t1/2); assay type: in vitro ADME; details: for half-life: human, human liver microsomes
Experimental: Human liver microsomes (20 mg/mL) were obtained from Xenotech, LLC (Lenexa, Kans.). β-nicotinamide adenine dinucleotide phosphate, reduced form (NADPH), magnesium chloride (MgCl2), and dimethyl sulfoxide (DMSO) were purchased from Sigma-Aldrich.
7.5 mM stock solutions of test compounds were prepared in DMSO. The 7.5 mM stock solutions were diluted to 12.5-50 μM in acetonitrile (ACN). The 20 mg/mL human liver microsomes were diluted to 0.625 mg/mL in 0.1 M potassium phosphate buffer, pH 7.4, containing 3 mM MgCl2. The diluted microsomes were added to wells of a 96-well deep-well polypropylene plate in triplicate. A 10 μL aliquot of the 12.5-50 μM test compound was added to the microsomes and the mixture was pre-warmed for 10 minutes. Reactions were initiated by addition of pre-warmed NADPH solution. The final reaction volume was 0.5 mL and contained 0.5 mg/mL human liver microsomes, 0.25-1.0 μM test compound, and 2 mM NADPH in 0.1 M potassium phosphate buffer, pH 7.4, and 3 mM MgCl2. The reaction mixtures were incubated at 37° C., and 50 μL aliquots were removed at 0, 5, 10, 20, and 30 minutes and added to shallow-well 96-well plates which contained 50 μL of ice-cold ACN with internal standard to stop the reactions. The plates were stored at 4° C. for 20 minutes after which 100 μL of water was added to the wells of the plate before centrifugation to pellet precipitated proteins. Supernatants were transferred to another 96-well plate and analyzed for amounts of parent remaining by LC-MS/MS using an Applied Bio-systems API 4000 mass spectrometer. The same procedure was followed for the non-deuterated counterpart of the compound of Formula B, Formula A, Formula I, Formula B-I, Formula C, or Formula E and the positive control, 7-ethoxycoumarin (1.0 μM). Testing was done in triplicate.
The in vitro t1/2s for test compounds were calculated from the slopes of the linear regression of % parent remaining (ln) vs incubation time relationship. in vitro t1/2=0.693/k k=−[slope of linear regression of % parent remaining(ln) vs incubation time]

[2] = intravenous, healthy male volunteers, cited from earlier work
[3] = relative to mibefradil; cited from earlier work
[4] = pH 7.4, Table 8a, 0.5 mg/mL HLM, 2 mM NADPH, 37° C., read-out: t1/2 Experiment 1
[5] = pH 7.4, Table 8a, 0.5 mg/mL HLM, 2 mM NADPH, 37° C., read-out: t1/2 Experiment 2
[6] = pH 7.4, Table 8a, average of Experiments 1 and 2, read-out: t1/2 Ave
[7] = pH 7.4, Table 8b, 0.5 mg/mL HLM, 2 mM NADPH, 37° C., read-out: t1/2 Experiment 1
[8] = pH 7.4, Table 8b, 0.5 mg/mL HLM, 2 mM NADPH, 37° C., read-out: t1/2 Experiment 2
[9] = pH 7.4, Table 8b, average of Experiments 1 and 2, read-out: t1/2 Ave

| half-life [1, 4] [min] | half-life [1, 5] [min] | half-life [1, 6] [min] | half-life [1, 7] [min] | half-life [1, 8] [min] | half-life [1, 9] [min] | SMILES | also measured |
| --- | --- | --- | --- | --- | --- | --- | --- |
| 4.61 | 4.98 | 4.79 | – | – | – | [2H]C1([2H])c2cc(F)ccc2[C@H](C(C)C)[C@](CCN(C)CCCc2nc3ccccc3[nH]2)(OC(=O)COC)C1([2H])[2H] [Compound 500, (1S,2S)-2-(2-((3-(1H-Benzo[d]imidazol-2-yl)propyl)(methyl)amino)ethyl)-3,3,4,4-tetradeutero-6-fluoro-1-isopropyl-1,2,3,4-tetrahydronaphthalen-2-yl 2-methoxyacetate] | half life (t1/2) shorter than that of mibefradil ([1]; HLM, from Table 8a): approximately 44% |
| 7.17 | 7.72 | 7.45 | – | – | – | [2H]C([2H])([2H])N(CC[C@]1(OC(=O)COC)[C@@H](C(C)C)c2ccc(F)cc2C([2H])([2H])C1([2H])[2H])C([2H])([2H])C([2H])([2H])C([2H])([2H])c1nc2ccccc2[nH]1 [Compound 703a, (1S,2S)-2-(2-((3-(1H-Benzo[d]imidazol-2-yl)-1,1,2,2,3,3-hexadeuteropropyl)(trideuteromethyl)-amino)ethyl)-3,3,4,4-tetradeutero-6-fluoro-1-isopropyl-1,2,3,4-tetrahydronaphthalen-2-yl 2-methoxyacetate] | – |
| – | – | – | 6.16 | 6.6 | 6.38 | [2H]C1([2H])c2cc(F)ccc2[C@H](C(C)C)[C@](CCN(C)CCCc2nc3ccccc3[nH]2)(OC(=O)C2CC2)C1([2H])[2H] [Compound 704a, (1S,2S)-2-(2-((3-(1H-Benzo[d]imidazol-2-yl)propyl)(methyl)amino)ethyl)-3,3,4,4-tetradeutero-6-fluoro-1-isopropyl-1,2,3,4-tetrahydronaphthalen-2-yl cyclopropanecarboxylate] | – |
| – | – | – | 7.27 | 7.03 | 7.15 | [2H]C([2H])([2H])N(CC[C@]1(OC(=O)C2CC2)[C@@H](C(C)C)c2ccc(F)cc2C([2H])([2H])C1([2H])[2H])C([2H])([2H])C([2H])([2H])C([2H])([2H])c1nc2ccccc2[nH]1 [Compound 707a, (1S,2S)-2-(2-((3-(1H-Benzo[d]imidazol-2-yl)-1,1,2,2,3,3-hexadeuteropropyl)(trideuteromethyl)-amino)ethyl)-3,3,4,4-tetradeutero-6-fluoro-1-isopropyl-1,2,3,4-tetrahydronaphthalen-2-yl cyclopropanecarboxylate] | – |
| 8.49 | 8.55 | 8.52 | – | – | – | COCC(=O)O[C@]1(CCN(C)CCCc2nc3ccccc3[nH]2)CCc2cc(F)ccc2[C@@H]1C(C)C [Mibefradil, (1S,2S)-2-(2-((3-(2-benzimidazolylpropyl)methylamino)ethyl)-6-fluoro-1,2,3,4-tetrahydro-1-isopropyl-2-naphthyl methoxyacetatedihydrochloride, reference compound] | bilirubin ([2]; in all cases): dose-dependent increase; plasma haptoglobin ([2]; in two cases): severe decrease |
| – | – | – | 6.58 | 6.55 | 6.56 | CC(C)[C@H]1c2ccc(F)cc2CC[C@@]1(CCN(C)CCCc1nc2ccccc2[nH]1)OC(=O)C1CC1 [NNC 55-0396, reference compound] | – |
| – | – | – | – | – | – | CC(C)C1c2ccc(F)cc2CCC1(O)CCN(C)CCCc1nc2ccccc2[nH]1 (stereo not shown) [Ro 40-5966] | pharmacologic effect of the metabolite as share of that of the parent [3]: approximately 10% |
